Two compounds from ChEMBL document CHEMBL4028815, “Novel phosphonate analogs of sulforaphane: Synthesis, in vitro and in vivo anticancer activity” (Eur J Med Chem, 2017) can be followed below.

Structures are written as SMILES.

Data set [1] concerns MES-SA. As to the kind of experiment: Cytotoxicity against human MESSA cells after 72 hrs by sulforhodamine B assay. The class given is functional, cell-based. Background: The SRB assay estimates cell density from bound dye.
Data set [2] relates to LoVo. The data set is described as follows: Cytotoxicity against human LoVo cells after 72 hrs by sulforhodamine B assay. The class given is functional, cell-based.
Data set [3] in a line: Resistance index, ratio of IC50 for human MESSA/DX5 cells to IC50 for human MESSA cells. The class given is functional.
The nature of data set [4]: Cytotoxicity against human LoVo/DX cells after 72 hrs by sulforhodamine B assay. The class given is functional, cell-based.
Data set [5] deals with MES-SA/Dx5. The data set is described as follows: Cytotoxicity against human MESSA/DX5 cells after 72 hrs by sulforhodamine B assay. The class given is functional, cell-based. As to conditions: MES-SA/Dx5, 72 h.
For data set [6], the system named is Mus musculus. The data set is described as follows: Toxicity in BALB/c mdb mouse implanted with mouse 4T1 cells assessed as serum creatinine level at 100 umol/kg, ip administered five times weekly measured at 29 day post cell innoculum (reference value: 9.3 +/- 1.2 umol/L). The class given is organism-based. As to conditions: in vivo, 696 h.
Data set [7] in a line: Resistance index, ratio of IC50 for human LoVo/DX cells to IC50 for human LoVo cells. The class given is functional.
Data set [8] concerns LoVo. The data set is described as follows: Potency index, ratio of sulforaphane IC50 to compound IC50 for human LoVo cells. The class given is functional.
The subject of data set [9] is Mus musculus. As to the kind of experiment: Toxicity in BALB/c mdb mouse implanted with mouse 4T1 cells assessed as WBC level at 100 umol/kg, ip administered five times weekly measured at 29 day post cell innoculum (reference value: 212.3 +/- 82.8 10^3/uL). The class given is organism-based. The note with it: in vivo, 696 h.
Data set [10] relates to Mus musculus. As to the kind of experiment: Toxicity in BALB/c mdb mouse implanted with mouse 4T1 cells assessed as lung weight at 100 umol/kg, ip administered five times weekly measured at 29 day post cell innoculum (reference value: 0.2 +/- 0.018 g). The class given is organism-based. As to conditions: in vivo, 696 h.
Data set [11] deals with Mus musculus. As to the kind of experiment: Toxicity in BALB/c mdb mouse implanted with mouse 4T1 cells assessed as RBC level at 100 umol/kg, ip administered five times weekly measured at 29 day post cell innoculum (reference value: 8.6 +/- 0.9 10^6/uL). The class given is organism-based. As to conditions: in vivo, 696 h.
For data set [12], the system named is Mus musculus. The data set is described as follows: Toxicity in BALB/c mdb mouse implanted with mouse 4T1 cells assessed as spleen weight at 100 umol/kg, ip administered five times weekly measured at 29 day post cell innoculum (reference value: 0.603 +/- 0.133 g). The class given is organism-based. As to conditions: in vivo, 696 h.
Data set [13] concerns Mus musculus. As to the kind of experiment: Toxicity in BALB/c mdb mouse implanted with mouse 4T1 cells assessed as hematocrit at 100 umol/kg, ip administered five times weekly measured at 29 day post cell innoculum (reference value: 39.9 +/- 3.7 %). The class given is organism-based. The note with it: in vivo, 696 h.
The subject of data set [14] is LoVo. The data set is described as follows: Potency index, ratio of benzyl isothiocyanate IC50 to compound IC50 for human LoVo cells. The class given is functional.
Data set [15] relates to Mus musculus. The data set is described as follows: Nephrotoxicity in BALB/c mdb mouse implanted with mouse 4T1 cells assessed as kidney weight at 100 umol/kg, ip administered five times weekly measured at 29 day post cell innoculum (reference value: 0.136 +/- 0.006 g). The class given is toxicity, organism-based. As to conditions: in vivo, 696 h.
Data set [16] concerns Mus musculus. As to the kind of experiment: Toxicity in BALB/c mdb mouse implanted with mouse 4T1 cells assessed as serum AST level at 100 umol/kg, ip administered five times weekly measured at 29 day post cell innoculum (reference value: 136 +/- 10.3 U/L). As to conditions: in vivo, 696 h. The class given is organism-based.
Data set [17] has as its system Mus musculus. The data set is described as follows: Toxicity in BALB/c mdb mouse implanted with mouse 4T1 cells assessed as body weight loss at 100 umol/kg, ip administered five times weekly measured 3 times weekly during compound dosing. The class given is organism-based. As to conditions: in vivo.
Data set [18] has as its system 4T1. The data set is described as follows: Anti-tumor activity against mouse 4T1 cells implanted in BALB/c mdb mouse assessed as lung metastasis at 100 umol/kg, ip administered five times weekly measured at 29 days post cell innoculum (reference value: 56 +/- 25). The class given is functional.
In data set [19] the test system is Mus musculus. The data set is described as follows: Hepatotoxicity in BALB/c mdb mouse implanted with mouse 4T1 cells assessed as liver weight at 100 umol/kg, ip administered five times weekly measured at 29 day post cell innoculum (reference value: 1.2 +/- 0.13 g). The class given is toxicity, organism-based. The note with it: in vivo, 696 h.
Data set [20] deals with 4T1. The data set is described as follows: Anti-tumor activity against mouse 4T1 cells implanted in BALB/c mdb mouse assessed as tumor growth inhibition at 100 umol/kg, ip administered five times weekly measured on day 29 post cell innoculum relative to control. The class given is functional. The note with it: 4T1, ip, 696 h, read-out: TGI.
Data set [21] has as its system Mus musculus. As to the kind of experiment: Toxicity in BALB/c mdb mouse implanted with mouse 4T1 cells assessed as serum PLT level at 100 umol/kg, ip administered five times weekly measured at 29 day post cell innoculum (reference value: 972 +/- 157 10^3/uL). The class given is organism-based. As to conditions: in vivo, 696 h.
Data set [22] has as its system 4T1. As to the kind of experiment: Anti-tumor activity against mouse 4T1 cells implanted in BALB/c mdb mouse assessed as tumor growth inhibition at 100 umol/kg, ip administered five times weekly measured on day 15 post cell innoculum relative to control. The class given is functional. The note with it: 4T1, ip, 360 h, read-out: TGI.
The test system of data set [23] is Mus musculus. As to the kind of experiment: Toxicity in BALB/c mdb mouse implanted with mouse 4T1 cells assessed as hemoglobin level at 100 umol/kg, ip administered five times weekly measured at 29 day post cell innoculum (reference value: 15.1 +/- 1.5 g/dl). The class given is organism-based. As to conditions: in vivo, 696 h.
For data set [24], the system named is Mus musculus. The data set is described as follows: Toxicity in BALB/c mdb mouse implanted with mouse 4T1 cells assessed as serum urea level at 100 umol/kg, ip administered five times weekly measured at 29 day post cell innoculum (reference value: 3.8 +/- […]). The class given is organism-based. As to conditions: in vivo, 696 h.
For data set [25], the system named is Mus musculus. As to the kind of experiment: Toxicity in BALB/c mdb mouse implanted with mouse 4T1 cells assessed as serum ALT level at 100 umol/kg, ip administered five times weekly measured at 29 day post cell innoculum (reference value: 23.8 +/- 2.2 U/L). The class given is organism-based. As to conditions: in vivo, 696 h.

On to `COc1cccc2c1C(=O)c1c(O)c3c(c(O)c1C2=O)C[C@@](O)(C(=O)CO)C[C@@H]3O[C@H]1C[C@H](N)[C@H](O)[C@H](C)O1` [DOXORUBICIN], for which the 50% inhibitory concentration (IC50) (commonly the concentration that gives 50% inhibition) in [1] came to 0.1 µM; in data set [2], 0.3 µM; in data set [4], 12.2 µM; in [5], 13.9 µM. Further, the “Ratio IC50” value in data set [3] is listed as 100.
As for `CC(C)COP(=O)(CCCCCCN=C=S)OCC(C)C`, the Activity came to 8.2 µmol/L in data set [6]; 311.2 ×10³ /uL in [9]; 0.199 g in data set [10]; 10.8 ×10⁶ /uL in [11]; 0.578 g in [12]; 53% in data set [13]. The Activity is given as 0.127 g in data set [15]; 153.6 U/L in data set [16]; “<= 10%” in data set [17]; 58 in [18]; 1.25 g in [19]; 831 ×10³ /uL in data set [21]. For the same compound, the Activity in data set [23] is 19.2 g/dL; in data set [24] it was 5.2 mmol/L; in data set [25], 33.1 U/L. Besides, the IC50 is 2.7 µM in data set [2] and 9.2 µM in data set [4]. Further, the “Ratio IC50” value in [7] came to 3.4; in data set [8], 10; in [14], 5. Also, the inhibition in vivo at 100 µmol/kg in [20] was 14.3%; in [22], 31%.
